Assay: Determination of compound Cmax and AUC
Type: in vivo
Details: rat; Sprague-Dawley rats, oral gavage, serum 0.5-4 h; actual oral dose (mg/kg) given
Procedure: Sprague-Dawley rats were orally gavaged with test article (2.5 mg/kg) and serum was collected at 0.5, 1, 2 and 4 h. Serum samples were treated with acetonitrile, precipitated proteins removed by centrifugation and supernatants analyzed by LC/MS/MS and compared against a standard curve to determine compound concentration. All compounds were orally dosed at the dosage shown, and pharmacokinetic parameters determined as described in the text.

| AUC | Cmax | SMILES |
| --- | --- | --- |
| < 5 ng·h/mL | < 3 ng/mL | CN1Cc2c(Cl)cc(Cl)cc2[C@@H](c2ccc(S(=O)(=O)NCCOCCOCCOCCNC(=O)C(O)C(O)C(=O)NCCOCCOCCOCCNS(=O)(=O)c3ccc([C@H]4CN(C)Cc5c(Cl)cc(Cl)cc54)cc3)cc2)C1 (single isomer, unassigned) [Example 226, N1,N4-bis(2-(2-(2-(2-(4-((R or S)-6,8-dichloro-2-methyl-1,2,3,4-tetrahydroisoquinolin-4-yl)phenylsulfonamido)ethoxy)ethoxy)ethoxy)ethyl)-2,3-dihydroxysuccinamide] |
| < 2 ng·h/mL | < 2 ng/mL | CN1Cc2c(Cl)cc(Cl)cc2[C@H](c2cccc(S(=O)(=O)NCCOCCOCCOCCNC(=O)Nc3ccc(NC(=O)NCCOCCOCCOCCNS(=O)(=O)c4cccc([C@@H]5CN(C)Cc6c(Cl)cc(Cl)cc65)c4)cc3)c2)C1 (single isomer, unassigned) [Example 245, (S or R)—N,N′-(1,1′-(1,4-phenylenebis(azanediyl))bis(1-oxo-5,8,1-trioxa-2-azatridecane-13,1-diyl))bis(3-((S or R)-6,8-dichloro-2-methyl-1,2,3,4-tetrahydroisoquinolin-4-yl)benzenesulfonamide)] |
| 242 ng·h/mL | 93 ng/mL | C/C(=C\c1cc(F)c(Oc2ccc(S(=O)(=O)NCCN3CCN(CCNS(=O)(=O)c4ccc(Oc5c(F)cc(/C=C(\C)C(=O)N=C(N)N)cc5F)cc4)CC3)cc2)c(F)c1)C(=O)N=C(N)N [Example 50, N,N′-(2,2′-(piperazine-1,4-diyl)bis(ethane-2,1-diyl))di-((E)-N-(diaminomethylene)-3-(3,5-difluoro-4-(4-sulfamoylphenoxy)phenyl)-2-methylacrylamide)] |
| < 4 ng·h/mL | < 3.5 ng/mL | CN1Cc2c(Cl)cc(Cl)cc2C(c2cccc(S(=O)(=O)NCCNC(=O)C(O)C(O)C(=O)NCCNS(=O)(=O)c3cccc(C4CN(C)Cc5c(Cl)cc(Cl)cc54)c3)c2)C1 (stereo not shown) [Example 169, N1,N4-bis(2-(3-(6,8-dichloro-2-methyl-1,2,3,4-tetrahydroisoquinolin-4-yl)phenylsulfonamido)ethyl)-2,3-dihydroxysuccinamide] |
| < 2 ng·h/mL | < 2 ng/mL | CN1Cc2c(Cl)cc(Cl)cc2C(c2cccc(S(=O)(=O)NCCOCCOCCOCCNC(=O)C(O)C(O)C(=O)NCCOCCOCCOCCNS(=O)(=O)c3cccc(C4CN(C)Cc5c(Cl)cc(Cl)cc54)c3)c2)C1 (stereo not shown) [Example 172, N1,N4-bis(2-(2-(2-(2-(3-(6,8-dichloro-2-methyl-1,2,3,4-tetrahydroisoquinolin-4-yl)phenylsulfonamido)ethoxy)ethoxy)ethoxy)ethyl)-2,3-dihydroxysuccinamide] |
| < 5 ng·h/mL | < 5.4 ng/mL | CN1Cc2c(Cl)cc(Cl)cc2C(c2cccc(NC(=O)NCCOCCOCCOCCNC(=O)C(O)C(O)C(=O)NCCOCCOCCOCCNC(=O)Nc3cccc(C4CN(C)Cc5c(Cl)cc(Cl)cc54)c3)c2)C1 (stereo not shown) [Example 174, N1,N4-bis(1-(3-(6,8-dichloro-2-methyl-1,2,3,4-tetrahydroisoquinolin-4-yl)phenylamino)-1-oxo-5,8,11-trioxa-2-azatridecan-13-yl)-2,3-dihydroxysuccinamide] |
| < 35 ng·h/mL | < 16 ng/mL | CN1Cc2c(Cl)cc(Cl)cc2C(c2cccc(NC(=O)CCOCCOCCOCCNC(=O)[C@H](O)[C@@H](O)C(=O)NCCOCCOCCOCCC(=O)Nc3cccc(C4CN(C)Cc5c(Cl)cc(Cl)cc54)c3)c2)C1 (stereo partly drawn) [Example 179, (2R,3R)—N1,N4-bis(2-(2-(2-(3-(3-(6,8-dichloro-2-methyl-1,2,3,4-tetrahydroisoquinolin-4-yl)phenylamino)-3-oxopropoxy)ethoxy)ethoxy)ethyl)-2,3-dihydroxysuccinamide] |
| < 19 ng·h/mL | < 10 ng/mL | CN1Cc2c(Cl)cc(Cl)cc2C(c2cccc(S(=O)(=O)NCCOCCOCCOCCNC(=O)C(=O)NCCOCCOCCOCCNS(=O)(=O)c3cccc(C4CN(C)Cc5c(Cl)cc(Cl)cc54)c3)c2)C1 (stereo not shown) [Example 180, N1,N2-bis(2-(2-(2-(2-(3-(6,8-dichloro-2-methyl-1,2,3,4-tetrahydroisoquinolin-4-yl)phenylsulfonamido)ethoxy)ethoxy)ethoxy)ethyl)oxalamide] |
